Five molecules from US9723842B2, “Isothiazolinone biocides enhanced by zinc ions” (ARCH CHEMICALS, INC., priority 2006, dated 2017) can be followed below.

Like-named read-outs stand apart in the source and are kept apart here.

In general, MIC refers to the least concentration at which growth counts as inhibited.

The test system of this assay is Ps. aeruginosa. In words: Minimum inhibitory concentration against mono-cultures (microtitre plate, doubling dilutions). The format is cell-based, Pseudomonas aeruginosa (NCIB 10421). The following applies: for MIC: Pseudomonas aeruginosa. Here is the method: Pseudomonas aeruginosa (NCIB 10421) maintained on nutrient agar, were used to study the synergy between BIT and ZnCl2. Bacteria were grown to stationary phase (approximately 24 hours) in nutrient broth (approximately 10^9 organisms per ml). A 0.1% (v/v) inoculum was used to seed fresh medium and 100 μl of the inoculum was then added to each well of a microtitre plate, except for the first well which contained 200 μl. Using doubling dilutions, the concentration of the compounds under investigation were varied in each well along the ordinate axis. The presence or absence of growth was recorded by visual inspection after 24 hours incubation at 37° C. Bacteria were grown to stationary phase (approximately 24 hours) in nutrient broth (approximately 10^9 organisms per ml). A 0.1% (v/v) inoculum was used to seed fresh medium and 100 μl of the inoculum was then added to each well of a microtitre plate, except for the first well which contained 200 μl. Using doubling dilutions, the concentration of the compounds under investigation were varied in each well along the ordinate axis. The presence or absence of growth was recorded by visual inspection after 24 hours incubation at 37° C.

[1] abbreviates: Comparative Example A, Table 10.

On to `CCCCn1sc2ccccc2c1=O` [BBIT, N-(n-butyl)-1,2-benzisothiazolin-3-one], for which the “MIC (ppm) against Ps. aeruginosa” value came out at 315 ppm (Example 5, Table 8, column 1); 360 ppm (Example 5, Table 8, column 2); 42 ppm (Example 5, Table 8, column 3); 180 ppm (Example 5, Table 8, column 4).

With `[Cl-].[Cl-].[Zn+2]` [ZnCl2, zinc chloride], the “MIC (ppm) against Ps. aeruginosa” value turned out to be 300 ppm (Example 2, Table 2, column 1); 450 ppm (Example 2, Table 2, column 2); 375 ppm (Example 2, Table 2, column 3); 450 ppm (Example 2, Table 2, column 4); 294 ppm (Example 3, Table 4, column 1); 294 ppm (Example 3, Table 4, column 2). Also, the “MIC (ppm) against Ps. aeruginosa” value (Example 3, Table 4, column 3) is listed as 210 ppm; the “MIC (ppm) against Ps. aeruginosa” value (Example 3, Table 4, column 4) is given as 600 ppm; the “MIC (ppm) against Ps. aeruginosa” value (Example 4, Table 6, column 1) came out at 210 ppm; the “MIC (ppm) against Ps. aeruginosa” value (Example 4, Table 6, column 2) is on record as 210 ppm; the “MIC (ppm) against Ps. aeruginosa” value (Example 4, Table 6, column 3) stood at 450 ppm; the “MIC (ppm) against Ps. aeruginosa” value (Example 4, Table 6, column 4) came out at 450 ppm. The “MIC (ppm) against Ps. aeruginosa” value (Example 5, Table 8, column 1) was determined as 525 ppm; the “MIC (ppm) against Ps. aeruginosa” value (Example 5, Table 8, column 2) is 525 ppm; the “MIC (ppm) against Ps. aeruginosa” value (Example 5, Table 8, column 3) came to 600 ppm; the “MIC (ppm) against Ps. aeruginosa” value (Example 5, Table 8, column 4) is recorded as 600 ppm.

In the case of `[Cl-].[Na+]` [NaCl2, Sodium Chloride], under setting [1], the “MIC (ppm) against Ps. aeruginosa” value was “None detected (greater than 675) ppm”.

`O=c1[nH]sc2ccccc12` [BIT, 1,2-benzisothiazolin-3-one]: the “MIC (ppm) against Ps. aeruginosa” value under setting [1] is recorded as 30 ppm; the “MIC (ppm) against Ps. aeruginosa” value (Example 2, Table 2, column 1) was determined as 30 ppm; the “MIC (ppm) against Ps. aeruginosa” value (Example 2, Table 2, column 2) is 42 ppm; the “MIC (ppm) against Ps. aeruginosa” value (Example 2, Table 2, column 3) is 42 ppm; the “MIC (ppm) against Ps. aeruginosa” value (Example 2, Table 2, column 4) is 30 ppm.

As to `Cn1sccc1=O` [MIT, 2-methyl-4-isothiazolin-3-one], the MIC (read-out: MIC (ppm) against Ps. aeruginosa, Example 4, Table 6, column 1) was 9 µg/mL; the minimum inhibitory concentration (MIC) (read-out: MIC (ppm) against Ps. aeruginosa, Example 4, Table 6, column 2) turned out to be 6 µg/mL; the MIC (read-out: MIC (ppm) against Ps. aeruginosa, Example 4, Table 6, column 3) was determined as 10.5 µg/mL; the MIC (read-out: MIC (ppm) against Ps. aeruginosa, Example 4, Table 6, column 4) was determined as 8 µg/mL.
